For 1 molecule, melting point results are on record in patent US8071616B2, “Pyridine, quinoline, and isoquinoline N-oxides as kinase inhibitors” (Bayer Healthcare LLC, priority 2002, dated 2011).

In general, melting point refers to the temperature of the solid-liquid transition. `CNC(=O)c1cc(Oc2ccc(NC(=O)Nc3ccc(Cl)c(C(F)(F)F)c3)cc2)cc[n+]1[O-]` [Experimental Synthesis 1, N-[4-chloro-3-(trifluoromethyl)phenyl]-N′-{4-[2-(N-methylcarbamoyl)-1-oxo-(4-pyridyloxy)]phenyl}urea] gave a melting point of 232 to 234 °C.
